Data as given in US12350246B2 (Cancer Prevention Pharmaceuticals, Inc., priority 2015, dated 2025).
Structures can show the parent of a compound that is named as a salt. Blank lines part the entries; values can stand above or below the compound they belong to.

How the values were obtained:
[1] = in vivo; cited from earlier work
[2] = tested on: tumor putrescine levels; conditions: eflornithine infusion, without suppressing peripheral platelet counts; cited from earlier work
[3] = tested on: tumors harboring Ki-ras mutations; conditions: reduced from 90%; cited from earlier work
[4] = Drug excipient compatibility: appearance and HPLC assay; type: physicochemical; conditions: 40° C./75% RH, four weeks
Description: A non-cGMP drug excipient compatibility study for eflornithine HCl/sulindac combination tablet was conducted. Appearance, HPLC Assay and XRPD properties were evaluated using a series of samples. The excipients that were tested included PVP, HPMC, lactose, EXPLOTAB™, Ac-Di-Sol®, PROSOLV®, STARCH 1500®, and OPADRY® Yellow. […] Total mass of most samples was approximately 750 mg. Preparation involved weigh off of components into 20cc scintillation vials, closed and vortexed for approximately 30 seconds. The samples were then stored in a 40° C./75% RH stability chamber for four weeks. Lids on the vials were loosely secured and were protected from light while stored in the chamber. Appearance observations were conducted by visual examination of the vials prepared for HPLC analysis. […] Excipient compatibility samples were analyzed using a method capable of detecting both actives, cflornithine and sulindac (FIG. 4A). The method employs a gradient reverse phase HPLC with Ultraviolet (UV) detection at 195 nm.

[5] = Drug excipient compatibility: XRPD; type: physicochemical; conditions: 40° C./75% RH, four weeks
Description: A non-cGMP drug excipient compatibility study for eflornithine HCl/sulindac combination tablet was conducted. Appearance, HPLC Assay and XRPD properties were evaluated using a series of samples. The excipients that were tested included PVP, HPMC, lactose, EXPLOTAB™, Ac-Di-Sol®, PROSOLV®, STARCH 1500®, and OPADRY® Yellow. […] Total mass of most samples was approximately 750 mg. Preparation involved weigh off of components into 20cc scintillation vials, closed and vortexed for approximately 30 seconds. The samples were then stored in a 40° C./75% RH stability chamber for four weeks. Lids on the vials were loosely secured and were protected from light while stored in the chamber. XRPD analysis was conducted on a Bruker AXS D8 Advance system with a Bragg-Brentano configuration using the CuKα radiation. Samples were analyzed at room temperature using the following parameters: 40 kV, 40 mA, 1° divergence and antiscatter slits, a method measuring in continuous mode from 2-40°2Θ with a 0.05° step and 1 second/step time. Between 3 and 25 mg of sample was analyzed using a rotating, top-filled steel sample holder in a nine-position auto-sampler accessory. The system was calibrated using traceable standards.

[6] = cited from earlier work
[7] = in vivo; cited from earlier work; remark: listed apart in the source
[8] = tested on: prostoglandin E2 (PGE2) levels in flat mucosa; conditions: 300 mg/day, one month; cited from earlier work
[9] = tested on: COX; conditions: cited from earlier work

SMILES: Cc1ccc(-c2cc(C(F)(F)F)nn2-c2ccc(S(N)(=O)=O)cc2)cc1 [celecoxib, 4-[5-(4-Methylphenyl)-3-(trifluoromethyl)pyrazol-1-yl]benzenesulfonamide]
Increase in rates of heart and blood vessel disease [1]: 30%
Risks of gastrointestinal side effects [1]: greater than 80%

SMILES: NCCCC(N)(C(=O)O)C(F)F (stereo not drawn) [eflornithine, 2,5-diamino-2-(difluoromethyl)pentanoic acid]
Decrease in tumor putrescine levels [2]: 90%
Tumors harboring Ki-ras mutations [3]: 36%

SMILES: CN1C(C(=O)Nc2ccccn2)=C(O)c2ccccc2S1(=O)=O [piroxicam, 4-hydroxy-2-methyl-N-2-pyridyl-2H-1,2-benzothiazine-3-carboxamide 1,1-dioxide]
Tumors harboring Ki-ras mutations [3]: 25%

Compatibility with excipients (appearance, HPLC assay) [4]: compatible with the potential excipients
Compatibility with excipients (XRPD) [5]: compatible with the potential excipients
SMILES: NCCCC(N)(C(=O)O)C(F)F (stereo not drawn) [eflornithine HCl]

Compatibility with excipients (appearance, HPLC assay) [4]: compatible with the potential excipients
Compatibility with excipients (XRPD) [5]: compatible with the potential excipients
SMILES: CC1=C(CC(=O)O)c2cc(F)ccc2/C1=C\c1ccc([S+](C)[O-])cc1 (stereo not drawn) [sulindac, (Z)-5-fluoro-2-methyl-1-((4-(methylsulfinyl)phenyl)methylene)-1H-indene-3-acetic acid]
Fraction of the drug absorbed ([6]; after oral administration): about 90%
Time to peak plasma levels ([6]; fasting patients): about 2 hours
Mild gastrointestinal effects, patients affected [7]: ~20%
Skin rash and pruritus, patients affected [7]: 5%

SMILES: CC(C)Cc1ccc(C(C)C(=O)O)cc1 (stereo not drawn) [ibuprofen]
PGE2 levels in flat mucosa [8]: significant decrease

SMILES: CC1=C(CC(=O)O)c2cc(F)ccc2/C1=C\c1ccc(S(C)(=O)=O)cc1 [Sulindac sulfone]
COX-inhibitory activity [9]: lacks COX-inhibitory activity
